Experimental data from PubChem BioAssay (NCI).
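Five concentrations, 48 hours, 96-well plates. TGI is the concentration that stops growth completely.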

Columns and labels:
Test in all cases: growth of human tumour cells (NCI), 48 h
KM12 colon = system: KM12 colon
A498 renal = system: A498 renal
SNB-19 CNS = system: SNB-19 CNS
MDA-N = system: MDA-N
HOP-92 NSCLC = system: HOP-92 NSCLC
OVCAR-4 ovarian = system: OVCAR-4 ovarian
U251 CNS = system: U251 CNS
SF-295 CNS = system: SF-295 CNS
EKVX NSCLC = system: EKVX NSCLC
UO-31 renal = system: UO-31 renal
UACC-257 melanoma = system: UACC-257 melanoma
CAKI-1 renal = system: CAKI-1 renal
DU-145 prostate = system: DU-145 prostate
HCC-2998 colon = system: HCC-2998 colon
T-47D breast = system: T-47D breast
MALME-3M melanoma = system: MALME-3M melanoma
COLO 205 colon = system: COLO 205 colon
SK-MEL-5 melanoma = system: SK-MEL-5 melanoma

SMILES | TGI (KM12 colon) | TGI (A498 renal) | TGI (SNB-19 CNS) | TGI (MDA-N) | TGI (HOP-92 NSCLC) | TGI (OVCAR-4 ovarian) | TGI (U251 CNS) | TGI (SF-295 CNS) | TGI (EKVX NSCLC) | TGI (UO-31 renal) | TGI (UACC-257 melanoma) | TGI (CAKI-1 renal) | TGI (DU-145 prostate) | TGI (HCC-2998 colon) | TGI (T-47D breast) | TGI (MALME-3M melanoma) | TGI (COLO 205 colon) | TGI (SK-MEL-5 melanoma)
CN(C(=O)Cc1cc(Cl)c(Cl)cc1NC(=O)CN)[C@H]1CCCC[C@@H]1N1CCCC1 | > 100 µM | 51.2 µM | > 100 µM | 31.7 µM | > 100 µM | > 100 µM | 32.6 µM | 77.1 µM | > 100 µM | > 100 µM | 33.9 µM | > 100 µM | > 100 µM | 31.6 µM | 98.4 µM | 36.1 µM |  | 
CCOC(=O)C(C)c1nc2ccc(C(F)(F)F)cc2[nH]c1=O (centres undefined) | > 100 µM | > 100 µM | > 100 µM | > 100 µM | > 100 µM | > 100 µM | > 100 µM | > 100 µM | > 100 µM | > 100 µM | > 100 µM |  | > 100 µM | > 100 µM | 69.9 µM | > 100 µM | > 100 µM | > 100 µM
C(=Nc1ccc(-c2nc3ccccc3[nH]2)cc1)c1ccco1 | > 100 µM | > 100 µM |  | > 100 µM | > 100 µM | > 100 µM |  |  | > 100 µM | > 100 µM | > 100 µM | > 100 µM | > 100 µM | > 100 µM | > 100 µM | > 100 µM | > 100 µM | > 100 µM
COc1c2c(cc3c1C1(O)Cc4ccc5c(c4C[N+]1(C)CC3)OCO5)OCO2 (centres undefined) | > 100 µM | > 100 µM | > 100 µM | > 100 µM | > 100 µM | > 100 µM | > 100 µM | > 100 µM | > 100 µM |  | > 100 µM | > 100 µM | > 100 µM | > 100 µM | > 100 µM | > 100 µM | > 100 µM | > 100 µM
COC(=O)/C=C\C(C#N)(C#N)N=Cc1sccc1C | 30.3 µM | 27.9 µM | 33.8 µM | 15.1 µM | 3.9 µM | 10.3 µM | > 40.6 µM | 35.1 µM | 15 µM | 3.51 µM | 23.3 µM | 3.51 µM | 13.4 µM | 28.6 µM | 5.92 µM | 11.3 µM | 2.53 µM | 4.78 µM
CCN(CC)CCCNc1[nH]ncc2c(C)c3nc4ccc(OC)cc4c3cc12 | 4.49 µM | 6.35 µM | 1.21 µM | 1.93 µM | 3.14 µM | 2.75 µM | 1.77 µM | 6.48 µM | 10.9 µM | 15 µM | 7.18 µM | 29.3 µM | 8.24 µM | 2.33 µM | 3.36 µM | 2.36 µM | 2.89 µM | 2.83 µM
CCOC(=O)CN1CC(C2=C(O)CN(CC(=O)OCC)C2=O)=CC1=O | > 100 µM | > 100 µM | > 100 µM | > 100 µM | > 100 µM | > 100 µM | > 100 µM | > 100 µM | > 100 µM | > 100 µM | > 100 µM | > 100 µM | > 100 µM | > 100 µM | > 100 µM | > 100 µM | > 100 µM | > 100 µM
C=CCN(c1cc(OC)c2[nH]c(C(=O)OCC)c(C)c2c1[N+](=O)[O-])S(C)(=O)=O | 66.2 µM | 65.6 µM | > 100 µM | 52.7 µM | 72.4 µM | > 100 µM | 31.6 µM | > 100 µM | 46.2 µM | 74.8 µM | > 100 µM | > 100 µM | > 100 µM | > 100 µM | 48.6 µM | 60.8 µM | 29.1 µM | 44.8 µM
COc1ccc2c3c1OC1C34CCN(C)C(C2)C4=CC(I)C1(OC)OC (centres undefined) | 28.3 µM | 56.7 µM | 30.5 µM | 18.8 µM | 24.5 µM | 30 µM | 29.8 µM | > 100 µM | 33.8 µM | 28.5 µM | 26.9 µM | 25.6 µM | 22.6 µM | 21.9 µM | 48.8 µM | 21.9 µM | 28.7 µM | 25.6 µM
O=C(O)c1ccc(Nc2nc3cc(C(F)(F)F)ccc3n3cccc23)cc1 | > 100 µM | > 100 µM | > 100 µM | > 100 µM | > 100 µM |  | 52.6 µM | > 100 µM | > 100 µM | > 100 µM | 71.6 µM | > 100 µM | > 100 µM | 44.6 µM | 70.4 µM | > 100 µM | 37 µM | 38.8 µM
Cc1ccc(S(=O)(=O)N/N=C2/CC3CCC4CC2CC34)cc1 (centres undefined) | > 100 µM | > 100 µM | > 100 µM | > 100 µM | > 100 µM |  | > 100 µM | > 100 µM | > 100 µM | > 100 µM | > 100 µM | > 100 µM | > 100 µM | > 100 µM | > 100 µM | > 100 µM | > 100 µM | > 100 µM
O=C(Nc1sccc1S(=O)(=O)c1ccccc1)c1ccccc1 | > 100 µM | > 100 µM | > 100 µM | > 100 µM | > 100 µM | > 100 µM | > 100 µM | > 100 µM | > 100 µM | > 100 µM | > 100 µM | > 100 µM | > 100 µM | > 100 µM | > 100 µM | > 100 µM | > 100 µM | > 100 µM
COc1cc2ccc1OCc1cccc(n1)COc1ccc(cc1OC)C=NCCNCCNCCN=C2 | > 100 µM | > 100 µM | > 100 µM | > 100 µM | > 100 µM | > 100 µM | > 100 µM |  | > 100 µM | > 100 µM | > 100 µM | > 100 µM | > 100 µM | > 100 µM | > 100 µM | > 100 µM | > 100 µM | > 100 µM
